For 18 compounds, IC50 results are on record in ChEMBL document CHEMBL4312043, “Discovery of Novel Neuraminidase Inhibitors by Structure-Based Virtual Screening, Structural Optimization, and Bioassay” (ACS Med Chem Lett, 2019).

In one experiment the target is Neuraminidase (Influenza A virus (A/Puerto Rico/8/1934(H1N1)), UniProt P03468). In words: Inhibition of Influenza A virus H1N1 neuraminidase using MU-NANA as substrate preincubated for 10 mins followed by substrate addition and measured after 15 mins by fluorescence based assay.
Neuraminidase (Influenza A virus (A/Puerto Rico/8/1934(H1N1)), UniProt P03468), sequence (P03468 whole entry): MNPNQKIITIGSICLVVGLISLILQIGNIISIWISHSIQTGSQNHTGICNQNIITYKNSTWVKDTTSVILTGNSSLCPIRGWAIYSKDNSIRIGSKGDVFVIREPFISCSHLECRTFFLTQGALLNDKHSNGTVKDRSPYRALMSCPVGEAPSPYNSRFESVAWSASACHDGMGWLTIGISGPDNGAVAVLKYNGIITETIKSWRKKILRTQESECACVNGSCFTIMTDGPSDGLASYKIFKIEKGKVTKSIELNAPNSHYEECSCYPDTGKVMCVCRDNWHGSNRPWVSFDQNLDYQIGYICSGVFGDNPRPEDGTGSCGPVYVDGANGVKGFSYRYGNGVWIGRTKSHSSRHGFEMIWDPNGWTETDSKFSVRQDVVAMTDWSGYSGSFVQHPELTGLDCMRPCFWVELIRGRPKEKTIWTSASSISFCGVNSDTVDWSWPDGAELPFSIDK
The term IC50 denotes the concentration needed to halve the response being measured. Low readings indicate greater potency, high ones weaker potency. For `CC1=NN(c2cccc(C(=O)O)c2)C(=O)/C1=C\c1ccc(-c2cc(Cl)ccc2C(=O)O)o1`, it took 37 µM to reach half-maximal inhibition (IC50).

Target in another experiment: not listed separately
In words: Inhibition of clostridium neuraminidase using fluorescent substrate preincubated for 2 mins followed by substrate addition and measured after 30 mins by fluorescence based microplate reader analysis.
Turning to `COc1cc(/C=N\NC(=O)c2ccc(Cn3cc(Br)c([N+](=O)[O-])n3)o2)cc(OC)c1O`, the half-maximal inhibitory concentration (IC50) was 12.9 µM.

`CCOC(=O)c1ccc(N/N=C/c2cc(Br)cc([N+](=O)[O-])c2O)cc1` had a concentration for half-maximal inhibition (IC50) of 16 µM.

Consider `COc1ccc(Br)cc1C(=O)N/N=C/c1ccc(Oc2ccc([N+](=O)[O-])cc2C#N)cc1`, for which the IC50 turned out to be 7.71 µM.

On to `O=C(N/N=C/c1ccc(OS(=O)(=O)c2ccccc2)cc1)c1cccc([N+](=O)[O-])c1`, for which half-maximal inhibition (IC50) required 8.44 µM.

The compound `O=C(N/N=C/c1cc([N+](=O)[O-])ccc1F)c1cc(O)c(O)c(O)c1` displayed an IC50 of 36.6 µM.

Regarding `O=C(N/N=C/c1cc(Cl)ccc1[N+](=O)[O-])c1cc(O)c(O)c(O)c1`, the midpoint of inhibition, the IC50, lay at 10.6 µM.

Regarding `O=C(N/N=C/c1cc([N+](=O)[O-])ccc1F)c1cc(O)cc(O)c1`, the midpoint of inhibition, the IC50, lay at 3.97 µM.

Take `CC(=O)Nc1ccc(/C=N/NC(=O)c2cc(O)cc(O)c2)cc1`: the IC50 worked out at 13.8 µM.

In turn, `COc1cc(/C=N/NC(=O)c2cc(O)cc(O)c2)ccc1O` showed an IC50 of 11.6 µM.

Turning to `O=C(N/N=C/c1ccc(O)c([N+](=O)[O-])c1)c1cc(O)cc(O)c1`, the IC50 was determined as 0.21 µM.

`O=C(N/N=C/c1ccc(F)c([N+](=O)[O-])c1)c1cc(O)c(O)c(O)c1` came in with an IC50 of 22.7 µM.

With `COc1cc(/C=N/NC(=O)c2cc(O)cc(O)c2)cc(OC)c1O`, the IC50 worked out at 14.8 µM.

For the compound `O=C(N/N=C/c1cc(Cl)ccc1[N+](=O)[O-])c1cc(O)cc(O)c1`, half-maximal inhibition (IC50) was put at 3.71 µM.

The compound `O=C(N/N=C/c1cc([N+](=O)[O-])ccc1O)c1cc(O)cc(O)c1` registered a half-inhibitory concentration (IC50) of 1.92 µM.

`O=C(N/N=C/c1ccc(F)c([N+](=O)[O-])c1)c1cc(O)cc(O)c1` returned an IC50 of 5.47 µM.

`O=C(N/N=C/c1ccc(O)c([N+](=O)[O-])c1)c1cc(O)c(O)c(O)c1` registered an IC50 of 9.67 µM.

As to `CCC(CC)O[C@@H]1C=C(C(=O)O)C[C@H](N)[C@H]1NC(C)=O` [OSELTAMIVIR CARBOXYLATE], half-maximal inhibition (IC50) was put at 3.04 µM.
